Data published in patent US20260256792A1, “TREATMENT OF CHRONIC SPONTANEOUS URTICARIA BY ADMINISTERING (R)-2-[3-[4-AMINO-3-(2-FLUORO-4-PHENOXY-PHENYL)PYRAZOLO[3,4-D]PYRIMIDIN-1-YL]PIPERIDINE-1-CARBONYL]-4-METHYL-4-[4-(OXETAN-3-YL)PIPERAZIN-1-YL]PENT-2-ENENITRILE” (priority 2023, published 2026).

System: moderate-to-severe chronic spontaneous urticaria (CSU)
Test: Phase 2 CSU study: urticaria activity score over 7 days (UAS7)
Type: in vivo, human
Conditions: for Change from Baseline in UAS7 at Week 12: Mean (SD) / Change from Baseline in UAS7 at Week 12: LS Mean Diff vs. placebo (95% CI) / Change from Baseline in UAS7 at Week 12: LS Mean (SE): Omalizumab-Naïve; for Imputed non-responder n (%), UAS7 = 0 / Imputed non-responder n (%), UAS7 ≤6 / Non-responder n (%), UAS7 = 0 / Non-responder n (%), UAS7 ≤6 / OR for rilzabrutinib vs. placebo, UAS7 = 0 / OR for rilzabrutinib vs. placebo, UAS7 ≤6 / RRD (%) for rilzabrutinib vs. placebo, UAS7 = 0 / RRD (%) for rilzabrutinib vs. placebo, UAS7 ≤6 / Responder n (%), UAS7 = 0 / Responder n (%), UAS7 ≤6: Omalizumab-naïve
Text: The study comprises a 12 week, randomized, double-blind, placebo-controlled, multi-center, dose-ranging efficacy and safety phase, followed by a 40 week open label extension (OLE) phase (see FIG. 1). The study consists of three phases and an optional OLE phase. […] Clinically, CSU is characterized by the spontaneous and recurrent appearance of pruritic hives. The proposed primary endpoints were the UAS7 at Week 12 in EU and EU reference countries and the ISS7 in the US. Regardless of where a participant was from, all assessments were the same. The UAS7 score is a composite score containing both the HSS7 and the ISS7. This allowed a global assessment of the two key components of urticaria: hives and itch. […] The UAS is a validated PRO measure. […] The daily UAS scores range from 0 to 6 point/day. […] Patients were to complete the UAS using the e-diary. […] The following secondary endpoints were to be analyzed using the same approach as for the primary endpoint: • Change from baseline in UAS7 at Week 4 • Change from baseline in UAS7 at Week 12 (for US and US reference countries) • Change from baseline in ISS7 at Week 12 (except US and US reference countries) • Change from baseline in HSS7 at Week 12 The following responder secondary endpoints were to be analyzed using the Cochran-Mantel-Haenszel test adjusted by region: • Proportion of participants with UAS7<6 at Week 12 • Proportion of participants with UAS7=0 at Week 12 Participants who received selected prohibited medications and/or rescue medications were to be considered as non-responders for time points after the medication usage. For other participants, all available data including those collected during the off-treatment period were to be used to determine the responder/non-responder status. Missing data were to be considered as non-responders.

[1] = Region Latin America, 400 mg TID
[2] = Region Western Countries, 400 mg BID
[3] = Region Western Countries, 400 mg QPM
[4] = Region Western Countries, 400 mg TID

CC(C)(C=C(C#N)C(=O)N1CCC[C@@H](n2nc(-c3ccc(Oc4ccccc4)cc3F)c3c(N)ncnc32)C1)N1CCN(C2COC2)CC1 [rilzabrutinib, (R)-2-[3-[4-amino-3-(2-fluoro-4-phenoxy-phenyl)pyrazolo[3,4-d]pyrimidin-1-yl]piperidine-1-carbonyl]-4-methyl-4-[4-(oxetan-3-yl)piperazin-1-yl]pent-2-enenitrile]
Change from Baseline in UAS7 at Week 12: Mean (SD) (Region Latin America, 400 mg QPM): −13.28 (10.78) | Change from Baseline in UAS7 at Week 12: LS Mean Diff vs. placebo (95% CI) [1]: 0.38 (−10.12, 10.88) | Change from Baseline in UAS7 at Week 12: Mean (SD) [1]: −14.07 (12.07) | Change from Baseline in UAS7 at Week 12: LS Mean (SE) [2]: −20.19 (3.23) | Change from Baseline in UAS7 at Week 12: LS Mean Diff vs. placebo (95% CI) [2]: −12.21 (−21.37, −3.06) | Change from Baseline in UAS7 at Week 12: Mean (SD) [2]: −20.62 (10.65) | Change from Baseline in UAS7 at Week 12: LS Mean (SE) [3]: −8.74 (4.03) | Change from Baseline in UAS7 at Week 12: Mean (SD) [3]: −10.70 (8.61) | Change from Baseline in UAS7 at Week 12: LS Mean (SE) [4]: −19.49 (3.03) | Change from Baseline in UAS7 at Week 12: Mean (SD) [4]: −23.13 (10.61) | Imputed non-responder n (%), UAS7 = 0 (400 mg BID, Week 1): 0 n (%) | Imputed non-responder n (%), UAS7 ≤6 (400 mg BID, Week 1): 0 n (%) | Non-responder n (%), UAS7 = 0 (400 mg BID, Week 1): 32 (91.4) n (%) | Non-responder n (%), UAS7 ≤6 (400 mg BID, Week 1): 29 (82.9) n (%) | OR for rilzabrutinib vs. placebo, UAS7 = 0 (400 mg BID, Week 1): 3.242 | OR for rilzabrutinib vs. placebo, UAS7 ≤6 (400 mg BID, Week 1): 3.183 | RRD (%) for rilzabrutinib vs. placebo, UAS7 = 0 (400 mg BID, Week 1): 5.6 % | RRD (%) for rilzabrutinib vs. placebo, UAS7 ≤6 (400 mg BID, Week 1): 9.9 % | Responder n (%), UAS7 = 0 (400 mg BID, Week 1): 3 (8.6) n (%) | Responder n (%), UAS7 ≤6 (400 mg BID, Week 1): 6 (17.1) n (%) | Imputed non-responder n (%), UAS7 = 0 (400 mg BID, Week 2): 1 (2.9) n (%) | Imputed non-responder n (%), UAS7 ≤6 (400 mg BID, Week 2): 1 (2.9) n (%) | Non-responder n (%), UAS7 = 0 (400 mg BID, Week 2): 33 (94.3) n (%) | Non-responder n (%), UAS7 ≤6 (400 mg BID, Week 2): 31 (88.6) n (%) | OR for rilzabrutinib vs. placebo, UAS7 = 0 (400 mg BID, Week 2): 2.024 | OR for rilzabrutinib vs. placebo, UAS7 ≤6 (400 mg BID, Week 2): 1.917 | RRD (%) for rilzabrutinib vs. placebo, UAS7 = 0 (400 mg BID, Week 2): 2.5 % | RRD (%) for rilzabrutinib vs. placebo, UAS7 ≤6 (400 mg BID, Week 2): 4.4 % | Responder n (%), UAS7 = 0 (400 mg BID, Week 2): 2 (5.7) n (%) | Responder n (%), UAS7 ≤6 (400 mg BID, Week 2): 4 (11.4) n (%) | Imputed non-responder n (%), UAS7 = 0 (400 mg BID, Week 3): 0 n (%) | Imputed non-responder n (%), UAS7 ≤6 (400 mg BID, Week 3): 0 n (%) | Non-responder n (%), UAS7 = 0 (400 mg BID, Week 3): 32 (91.4) n (%) | Non-responder n (%), UAS7 ≤6 (400 mg BID, Week 3): 27 (77.1) n (%) | OR for rilzabrutinib vs. placebo, UAS7 = 0 (400 mg BID, Week 3): 3.036 | OR for rilzabrutinib vs. placebo, UAS7 ≤6 (400 mg BID, Week 3): 2.894 | RRD (%) for rilzabrutinib vs. placebo, UAS7 = 0 (400 mg BID, Week 3): 5.0 % | RRD (%) for rilzabrutinib vs. placebo, UAS7 ≤6 (400 mg BID, Week 3): 13.3 % | Responder n (%), UAS7 = 0 (400 mg BID, Week 3): 3 (8.6) n (%) | Responder n (%), UAS7 ≤6 (400 mg BID, Week 3): 8 (22.9) n (%) | Imputed non-responder n (%), UAS7 = 0 (400 mg BID, Week 4): 2 (5.7) n (%) | Imputed non-responder n (%), UAS7 ≤6 (400 mg BID, Week 4): 2 (5.7) n (%) | Non-responder n (%), UAS7 = 0 (400 mg BID, Week 4): 32 (91.4) n (%) | Non-responder n (%), UAS7 ≤6 (400 mg BID, Week 4): 25 (71.4) n (%) | OR for rilzabrutinib vs. placebo, UAS7 = 0 (400 mg BID, Week 4): 1.372 | OR for rilzabrutinib vs. placebo, UAS7 ≤6 (400 mg BID, Week 4): 2.950 | RRD (%) for rilzabrutinib vs. placebo, UAS7 = 0 (400 mg BID, Week 4): 1.9 % | RRD (%) for rilzabrutinib vs. placebo, UAS7 ≤6 (400 mg BID, Week 4): 15.8 % | Responder n (%), UAS7 = 0 (400 mg BID, Week 4): 3 (8.6) n (%) | Responder n (%), UAS7 ≤6 (400 mg BID, Week 4): 10 (28.6) n (%) | Imputed non-responder n (%), UAS7 = 0 (400 mg BID, Week 5): 2 (5.7) n (%) | Imputed non-responder n (%), UAS7 ≤6 (400 mg BID, Week 5): 2 (5.7) n (%) | Non-responder n (%), UAS7 = 0 (400 mg BID, Week 5): 31 (88.6) n (%) | Non-responder n (%), UAS7 ≤6 (400 mg BID, Week 5): 25 (71.4) n (%) | OR for rilzabrutinib vs. placebo, UAS7 = 0 (400 mg BID, Week 5): 4.254 | OR for rilzabrutinib vs. placebo, UAS7 ≤6 (400 mg BID, Week 5): 6.525 | RRD (%) for rilzabrutinib vs. placebo, UAS7 = 0 (400 mg BID, Week 5): 8.1 % | RRD (%) for rilzabrutinib vs. placebo, UAS7 ≤6 (400 mg BID, Week 5): 21.1 % | Responder n (%), UAS7 = 0 (400 mg BID, Week 5): 4 (11.4) n (%) | Responder n (%), UAS7 ≤6 (400 mg BID, Week 5): 10 (28.6) n (%) | Imputed non-responder n (%), UAS7 = 0 (400 mg BID, Week 6): 2 (5.7) n (%) | Imputed non-responder n (%), UAS7 ≤6 (400 mg BID, Week 6): 2 (5.7) n (%) | Non-responder n (%), UAS7 = 0 (400 mg BID, Week 6): 31 (88.6) n (%) | Non-responder n (%), UAS7 ≤6 (400 mg BID, Week 6): 26 (74.3) n (%) | OR for rilzabrutinib vs. placebo, UAS7 = 0 (400 mg BID, Week 6): 4.048 | OR for rilzabrutinib vs. placebo, UAS7 ≤6 (400 mg BID, Week 6): 1.743
